Measurements published in patent publication US4029805A, “Semisynthetic penicillins” (Hoffmann-La Roche Inc., priority 1976, dated 1977).
Like-named read-outs stand apart in the source and are kept apart here.

Assays:
S. typhosa [1] = test: Curative dose against systemic S. typhosa infection; type: in vivo, mice; settings: Mus musculus, sc, read-out: CD50 (the source's name)
S. pyogenes = test: Curative dose against systemic S. pyogenes infection; type: in vivo, mice; settings: Streptococcus pyogenes, in Mus musculus, read-out: CD50 (the source's name)
S. typhosa [2] = test: Curative dose against systemic S. typhosa infection; type: in vivo, mice; settings: Mus musculus, po
Protocol: (§1) In order to illustrate the relative activity of the compounds of this invention as compared to amoxicillin, the compounds, represented by the acetaldehyde derivative, were tested orally against systemic bacterial infections of mice with the following results. The CD50 is the curative dose in 50% of the animals treated against a challenge organism.

E. coli [3] = test: Curative dose against systemic E. coli infection; type: in vivo, mice; settings: Escherichia coli, in Mus musculus, po
Protocol: as §1

S. aureus = test: Curative dose against systemic S. aureus infection; type: in vivo, mice; settings: Staphylococcus aureus, in Mus musculus, read-out: CD50 (the source's name)
E. coli [4] = test: Curative dose against systemic E. coli infection; type: in vivo, mice; settings: Escherichia coli, in Mus musculus, read-out: CD50 (the source's name)
K. pneumoniae = test: Curative dose against systemic K. pneumoniae infection; type: in vivo, mice; settings: Klebsiella pneumoniae, in Mus musculus, read-out: CD50 (the source's name)
B. subtilis = test: Stability in aqueous solution at room temperature, microbiological assay using B. subtilis; settings: in words
Protocol: To illustrate the relative stability of the compounds of this invention in aqueous solution at room temperature the sodium salts of the compounds were tested as 20% by weight aqueous solutions for activity by microbiological assay using B. subtilis as the test organism and compared to 10% and 20% aqueous solutions of amoxicillin sodium salt and 10% aqueous solution of the acetone derivative of amoxicillin.

S. schottmuelleri = test: Curative dose against systemic S. schottmuelleri infection; type: in vivo, mice; settings: Mus musculus
D. pneumoniae = test: Curative dose against systemic D. pneumoniae infection; type: in vivo, mice; settings: Streptococcus pneumoniae, in Mus musculus, read-out: CD50 (the source's name)
[5] = po, Table 3(b), po, acetaldehyde derivative comparison
[6] = po, benzaldehyde derivative comparison
[7] = po, butyraldehyde derivative comparison
[8] = po, hexaldehyde derivative comparison
[9] = po, propionaldehyde derivative comparison
[10] = sc, Table 3(b), sc, acetaldehyde derivative comparison
[11] = sc, benzaldehyde derivative comparison
[12] = sc, butyraldehyde derivative comparison
[13] = sc, hexaldehyde derivative comparison
[14] = sc, propionaldehyde derivative comparison
[15] = Table 3(b), acetaldehyde derivative comparison, read-out: CD50 (the source's name)
[16] = read-out: CD50, Table 2, PO, mice

SMILES: CC1(C)S[C@@H]2[C@H](NC(=O)[C@H](N)c3ccc(O)cc3)C(=O)N2[C@H]1C(=O)O [Amoxicillin, 6[(-)-alpha-amino-para-hydroxyphenylacetamido]-penicillanic acid]
- ED50 (S. typhosa [1]; Table 3(b), acetaldehyde derivative comparison): 6.3 mg/kg
- ED50 (S. typhosa [1]; benzaldehyde derivative comparison): 0.56 mg/kg
- ED50 (S. typhosa [1]; butyraldehyde derivative comparison): 1.3 mg/kg
- ED50 (S. typhosa [1]; hexaldehyde derivative comparison): 3.3 mg/kg
- ED50 (S. typhosa [1]; propionaldehyde derivative comparison): 2.8 mg/kg
- ED50 (S. pyogenes; po, Table 2, PO, mice): 1.5 mg/kg
- ED50 (S. pyogenes; [5]): 1.5 mg/kg
- ED50 (S. pyogenes; [6]): 0.82 mg/kg
- ED50 (S. pyogenes; [7]): 0.08 mg/kg
- ED50 (S. pyogenes; [8]): 0.3 mg/kg
- ED50 (S. pyogenes; [9]): 0.16 mg/kg
- ED50 (S. pyogenes; [10]): < 0.05 mg/kg
- ED50 (S. pyogenes; [11]): 0.31 mg/kg
- ED50 (S. pyogenes; [12]): < 0.01 mg/kg
- ED50 (S. pyogenes; [13]): 0.11 mg/kg
- ED50 (S. pyogenes; [14]): 0.07 mg/kg
- ED50 (S. typhosa [2]; [15]): 5 mg/kg
- ED50 (S. typhosa [2]; benzaldehyde derivative comparison, read-out: CD50 (the source's name)): 1.3 mg/kg
- ED50 (S. typhosa [2]; butyraldehyde derivative comparison, read-out: CD50 (the source's name)): 3.3 mg/kg
- ED50 (S. typhosa [2]; hexaldehyde derivative comparison, read-out: CD50 (the source's name)): 3.7 mg/kg
- ED50 (S. typhosa [2]; propionaldehyde derivative comparison, read-out: CD50 (the source's name)): 3.8 mg/kg
- ED50 (S. typhosa [2]; [16]): 5.4 mg/kg
- ED50 (E. coli [3]; [15]): 6.4 mg/kg
- ED50 (E. coli [3]; [16]): 6.4 mg/kg
- ED50 (S. aureus; po, Table 2, PO, mice): 1.2 mg/kg
- ED50 (S. aureus; [5]): 1.2 mg/kg
- ED50 (S. aureus; [6]): 4 mg/kg
- ED50 (S. aureus; [7]): 0.29 mg/kg
- ED50 (S. aureus; [8]): 0.72 mg/kg
- ED50 (S. aureus; [9]): 0.41 mg/kg
- ED50 (S. aureus; [10]): 2 mg/kg
- ED50 (S. aureus; [11]): 0.16 mg/kg
- ED50 (S. aureus; [12]): 0.5 mg/kg
- ED50 (S. aureus; [13]): 0.79 mg/kg
- ED50 (S. aureus; [14]): 0.47 mg/kg
- ED50 (E. coli [4]; [6]): 16 mg/kg
- ED50 (E. coli [4]; [7]): 15 mg/kg
- ED50 (E. coli [4]; [8]): 10 mg/kg
- ED50 (E. coli [4]; [9]): 11 mg/kg
- ED50 (E. coli [4]; [10]): 10 mg/kg
- ED50 (E. coli [4]; [11]): 5.9 mg/kg
- ED50 (E. coli [4]; [12]): 6 mg/kg
- ED50 (E. coli [4]; [13]): 2.5 mg/kg
- ED50 (E. coli [4]; [14]): 3.4 mg/kg
- ED50 (K. pneumoniae; po, Table 2, PO, mice): 10 mg/kg
- ED50 (K. pneumoniae; [5]): 10 mg/kg
- ED50 (K. pneumoniae; [6]): 75 mg/kg
- ED50 (K. pneumoniae; [7]): 58 mg/kg
- ED50 (K. pneumoniae; [8]): 59 mg/kg
- ED50 (K. pneumoniae; [9]): 16 mg/kg
- ED50 (K. pneumoniae; [10]): 12 mg/kg
- ED50 (K. pneumoniae; [11]): 100 mg/kg
- ED50 (K. pneumoniae; [12]): 22 mg/kg
- ED50 (K. pneumoniae; [13]): 48 mg/kg
- ED50 (K. pneumoniae; [14]): 17 mg/kg
- stability in solution (B. subtilis): very short stability in parenteral solutions
- ED50 (S. schottmuelleri; po, Table 3(b), po, acetaldehyde derivative comparison, read-out: CD50 (the source's name)): 5.3 mg/kg
- ED50 (S. schottmuelleri; po, benzaldehyde derivative comparison, read-out: CD50 (the source's name)): 5.5 mg/kg
- ED50 (S. schottmuelleri; po, butyraldehyde derivative comparison, read-out: CD50 (the source's name)): 5.9 mg/kg
- ED50 (S. schottmuelleri; po, hexaldehyde derivative comparison, read-out: CD50 (the source's name)): 4.4 mg/kg
- ED50 (S. schottmuelleri; po, propionaldehyde derivative comparison, read-out: CD50 (the source's name)): 5.7 mg/kg
- ED50 (S. schottmuelleri; po, read-out: CD50, Table 2, PO, mice): 5.3 mg/kg
- ED50 (S. schottmuelleri; sc, Table 3(b), sc, acetaldehyde derivative comparison, read-out: CD50 (the source's name)): 6.5 mg/kg
- ED50 (S. schottmuelleri; sc, benzaldehyde derivative comparison, read-out: CD50 (the source's name)): 6.7 mg/kg
- ED50 (S. schottmuelleri; sc, butyraldehyde derivative comparison, read-out: CD50 (the source's name)): 2.3 mg/kg
- ED50 (S. schottmuelleri; sc, hexaldehyde derivative comparison, read-out: CD50 (the source's name)): 1 mg/kg
- ED50 (S. schottmuelleri; sc, propionaldehyde derivative comparison, read-out: CD50 (the source's name)): 6.1 mg/kg
- ED50 (D. pneumoniae; po, Table 2, PO, mice): 10 mg/kg
- ED50 (D. pneumoniae; [5]): 10 mg/kg
- ED50 (D. pneumoniae; [6]): < 0.2 mg/kg
- ED50 (D. pneumoniae; [7]): 2.7 mg/kg
- ED50 (D. pneumoniae; [8]): 0.75 mg/kg
- ED50 (D. pneumoniae; [9]): 1.1 mg/kg
- ED50 (D. pneumoniae; [10]): 0.53 mg/kg
- ED50 (D. pneumoniae; [11]): 0.14 mg/kg
- ED50 (D. pneumoniae; [12]): 3.2 mg/kg
- ED50 (D. pneumoniae; [13]): 0.07 mg/kg
- ED50 (D. pneumoniae; [14]): 0.19 mg/kg
- LD50 (in vivo; ip): 3460 mg/kg
- LD50 (in vivo; po): > 10000 mg/kg
- LD50 (in vivo; sc): 10000 mg/kg
